Measurements from patent US10597388B2, “Pyridazinone herbicides” (FMC CORPORATION, priority 2014, dated 2020).

Key:
Format in all cases: in vivo
[1] = system: barnyardgrass (Echinochloa crus-galli); assay: Test B flooded paddy test; conditions: 250 g ai/ha, Flood; visual rating on scale of 0 to 100 where 0 is no effect and 100 is complete control; 13 to 15 d after treatment
Method in brief: (§1)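 Plants grown to the 2-leaf stage. At treatment, pots were flooded to 3 cm above the soil, compound was applied directly to the paddy water, and that depth was held throughout. After 13 to 15 d in the greenhouse, response was rated visually against controls on a 0 (no effect) to 100 (complete control) scale.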

rice (Oryza sativa) = assay: Test B flooded paddy test; conditions: 250 g ai/ha, Flood; visual rating on scale of 0 to 100 where 0 is no effect and 100 is complete control; 13 to 15 d after treatment
Method in brief: as §1

[2] = system: sedge, umbrella (small-flower umbrella sedge, Cyperus difformis); assay: Test B flooded paddy test; conditions: 250 g ai/ha, Flood; visual rating on scale of 0 to 100 where 0 is no effect and 100 is complete control; 13 to 15 d after treatment
Method in brief: as §1

[3] = system: ducksalad (Heteranthera limosa); assay: Test B flooded paddy test; conditions: 250 g ai/ha, Flood; visual rating on scale of 0 to 100 where 0 is no effect and 100 is complete control; 13 to 15 d after treatment
Method in brief: as §1

kochia (Kochia scoparia) = assay: Test A greenhouse herbicide test, pre- and postemergence
Description: (§2) Seeds of plant species selected from barnyardgrass (Echinochloa crus-galli), kochia (Kochia scoparia), ragweed (common ragweed, Ambrosia elatior), ryegrass, Italian (Italian ryegrass, Lolium multiflorum), crabgrass, large (large crabgrass, Digitaria sanguinalis), foxtail, giant (giant foxtail, Setaria faberii), momingglory (Ipomoea spp.), pigweed (Amaranthus retroflexus), velvetleaf (Abutilon theophrasti), wheat (Triticum aestivum), and corn (Zea mays) were planted into a blend of loam soil and sand and treated preemergence with a directed soil spray using test chemicals formulated in a non-phytotoxic solvent mixture which included a surfactant.
(§3) At the same time, plants selected from these crop and weed species and also blackgrass (Alopecurus myosuroides), and galium (catchweed bedstraw, Galium aparine) were planted in pots containing the same blend of loam soil and sand and treated with postemergence applications of test chemicals formulated in the same manner. Plants ranged in height from 2 to 10 cm and were in the one- to two-leaf stage for the postemergence treatment. Treated plants and untreated controls were maintained in a greenhouse for approximately 10 d, after which time all treated plants were compared to untreated controls and visually evaluated for injury. Plant response ratings, summarized in Table A, are based on a 0 to 100 scale where 0 is no effect and 100 is complete control. A dash (-) response means no test result.

[4] = system: barnyardgrass (Echinochloa crus-galli); assay: as above
Description: as §2, §3

[5] = system: foxtail, giant (giant foxtail, Setaria faberii); assay: as above
Description: as §2, §3

[6] = system: wheat (Triticum aestivum); assay: as above; conditions: Postemergence
Description: as §2, §3

corn (Zea mays) = assay: as above; conditions: Postemergence
Description: as §2, §3

[7] = system: pigweed (Amaranthus retroflexus); assay: as above
Description: as §2, §3

[8] = system: ryegrass, Italian (Italian ryegrass, Lolium multiflorum); assay: as above
Description: as §2, §3

[9] = system: ragweed (common ragweed, Ambrosia elatior); assay: as above
Description: as §2, §3

[10] = system: blackgrass (Alopecurus myosuroides); assay: Test A greenhouse herbicide test, postemergence; conditions: for Plant response rating, Blackgrass: 125 g ai/ha, 0 to 100 scale where 0 is no effect and 100 is complete control; for Blackgrass plant response rating: 500 g ai/ha, 0 to 100 scale, 0 is no effect, 100 is complete control
Method in brief: (§4)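 Pot-grown plants (loam soil/sand blend), 2–10 cm tall at the one- to two-leaf stage, received postemergence sprays of formulated test chemical. After about 10 d in the greenhouse, injury was rated visually against untreated controls on a 0 (no effect) to 100 (complete control) scale.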

[11] = system: galium (catchweed bedstraw, Galium aparine); assay: Test A greenhouse herbicide test, postemergence
Method in brief: as §4

[12] = Postemergence, 125 g ai/ha, 0 to 100 scale where 0 is no effect and 100 is complete control
[13] = Postemergence, 500 g ai/ha, visual rating after approx. 10 d, 0 to 100 scale (0 no effect, 100 complete control)
[14] = Preemergence, 125 g ai/ha, 0 to 100 scale where 0 is no effect and 100 is complete control
[15] = Preemergence, 500 g ai/ha, 0 to 100 scale where 0 is no effect and 100 is complete control
[16] = Postemergence, 500 g ai/ha, 0 to 100 scale, 0 is no effect, 100 is complete control
[17] = 125 g ai/ha, 0 to 100 scale where 0 is no effect and 100 is complete control
[18] = 500 g ai/ha, visual rating after approx. 10 d, 0 to 100 scale (0 no effect, 100 complete control)

| SMILES | Plant response rating, Barnyardgrass [1] | Plant response rating, Rice (rice (Oryza sativa)) | Plant response rating, Sedge, Umbrella [2] | Plant response rating, Ducksalad [3] | Plant response rating, Kochia (kochia (Kochia scoparia); [12]) | Plant response rating, Kochia (kochia (Kochia scoparia); [13]) | Kochia plant response rating (kochia (Kochia scoparia); [14]) | Plant response rating, Kochia (kochia (Kochia scoparia); [15]) | Plant response rating, Barnyardgrass [4, 12] | Barnyardgrass plant response rating [4, 16] | Barnyardgrass plant response rating [4, 14] | Plant response rating, Barnyardgrass [4, 15] | Plant response rating, Foxtail, Giant [5, 12] | Plant response rating, Foxtail, Giant [5, 13] | Foxtail, Giant plant response rating [5, 14] | Plant response rating, Foxtail, Giant [5, 15] | Plant response rating, Wheat [6, 17] | Plant response rating, Wheat [6, 18] | Plant response rating, Corn (corn (Zea mays); [17]) | Plant response rating, Corn (corn (Zea mays); [18]) | further results |
| --- | --- | --- | --- | --- | --- | --- | --- | --- | --- | --- | --- | --- | --- | --- | --- | --- | --- | --- | --- | --- | --- |
| COC(=O)Oc1c(Cl)nn(C)c(=O)c1-c1c(C)sc2ccc(Cl)cc12 [Compound 101] | 0 | 0 | 0 | 0 | 20 | 30 | 0 | 40 | 0 | 30 | 0 | 30 | 30 | 50 | 30 | 60 | 0 | 20 | 0 | 20 | Plant response rating, Pigweed [7, 12]: 30; Plant response rating, Pigweed [7, 13]: 70; Pigweed plant response rating [7, 14]: 90; Plant response rating, Pigweed [7, 15]: 90; Plant response rating, Ryegrass, Italian [8, 12]: 30; Plant response rating, Ryegrass, Italian [8, 13]: 50; Ryegrass, Italian plant response rating [8, 14]: 60; Plant response rating, Ryegrass, Italian [8, 15]: 100; Plant response rating, Ragweed [9, 12]: 60; Plant response rating, Ragweed [9, 13]: 80; Ragweed plant response rating [9, 14]: 40; Plant response rating, Ragweed [9, 15]: 40; Plant response rating, Blackgrass [10]: 20; Blackgrass plant response rating [10]: 40; Plant response rating, Galium [11, 17]: 70; Plant response rating, Galium [11, 18]: 90 |
| CCc1ccc2ccc(C)cc2c1-c1c(O)c(C)nn(C)c1=O [Compound 103] | 30 | 0 | 50 | 0 | 50 | 90 | 20 | 40 | 40 | 90 | 40 | 90 | 90 | 90 | 80 | 100 | 0 | 20 | 20 | 60 | Plant response rating, Pigweed [7, 12]: 90; Plant response rating, Pigweed [7, 13]: 100; Pigweed plant response rating [7, 14]: 100; Plant response rating, Pigweed [7, 15]: 100; Plant response rating, Ryegrass, Italian [8, 12]: 100; Plant response rating, Ryegrass, Italian [8, 13]: 100; Ryegrass, Italian plant response rating [8, 14]: 90; Plant response rating, Ryegrass, Italian [8, 15]: 100; Plant response rating, Ragweed [9, 12]: 100; Plant response rating, Ragweed [9, 13]: 100; Ragweed plant response rating [9, 14]: 90; Plant response rating, Ragweed [9, 15]: 100; Plant response rating, Blackgrass [10]: 70; Blackgrass plant response rating [10]: 90; Plant response rating, Galium [11, 17]: 100; Plant response rating, Galium [11, 18]: 100 |
